# Experimental data as given in ChEMBL document CHEMBL4354805, “Discovery of MK-8719, a Potent O-GlcNAcase Inhibitor as a Potential Treatment for Tauopathies” (J Med Chem, 2019).
# Key:
# Rattus norvegicus [1] = experiment: Elevation of O-protein in rat brain at 3 mg/kg, po measured after 8 hrs relative to control; type: functional
# [2] = AUCN in rhesus monkey at 3 mg/kg, po; type: ADME, organism-based, Macaca mulatta; conditions: in vivo
# Nav1.5 = Nav1.5 (Homo sapiens, UniProt Q14524); experiment: Inhibition of Nav1.5 (unknown origin) at 30 uM
# [3] = AUC (0 to 24 hrs) in rat assessed as change in histomorphology at 1000 mg/kg, po administered for 7 days and measured on day 8; type: ADME, organism-based; parameters: time < 24 hr, dose 1000 mg/kg, route oral; conditions: in vivo
# [4] = Toxicity in rat assessed as change in histomorphology at 1000 mg/kg, po administered for 7 days and measured on day 8; type: organism-based; conditions: in vivo, 168 h
# [5] = Oral bioavailability in Wistar Han rat at 10 mg/kg; type: ADME, organism-based; conditions: in vivo
# [6] = Stability in dog hepatocytes assessed as parent compound remaining at 10 uM incubated for 120 mins; type: ADME, cell-based, Canis lupus familiaris, Hepatocyte; conditions: read-out: Stability
# [7] = Tmax in rat brain at 10 mg/kg, po measured upto 24 hrs; type: ADME, organism-based
# [8] = Toxicity in rat assessed as change in serum chemistry at 1000 mg/kg, po administered for 7 days and measured on day 8; type: organism-based; conditions: in vivo, 168 h
# MDR1 = experiment: Apparent permeability in pig LLC-PK1 cells transfected with MDR1; type: ADME, cell-based, Sus scrofa
# [9] = Volume of distribution at steady state in rhesus monkey at 1 mg/kg, iv or 3 mg/kg, po; type: ADME, organism-based, Macaca mulatta; conditions: in vivo, read-out: Vdss
# Rattus norvegicus [10] = experiment: Increase in O-protein AUC in rat brain at 10 mg/kg, po measured upto 24 hrs; type: ADME, organism-based; conditions: in vivo
# [11] = Fraction unbound in Beagle dog plasma at 1 uM by equilibrium dialysis; type: ADME, cell-free, Canis lupus familiaris
# [12] = Protein binding in human plasma; type: ADME, cell-free; conditions: read-out: PPB
# [13] = Drug uptake in rat brain at 3 mg/kg, po measured after 24 hrs; type: ADME, organism-based; conditions: in vivo
# Rattus norvegicus [14] = experiment: Hemodynamic activity in telemetered rat at 380 mg/kg, po; type: ADME, organism-based; conditions: in vivo
# [15] = Cmax in telemetered dog at 380 mg/kg, po; type: ADME, organism-based, Canis lupus familiaris; parameters: dose 380 mg/kg, route oral; conditions: in vivo
# Rattus norvegicus [16] = experiment: Elevation of O-protein in rat brain at 10 mg/kg, po measured after 24 hrs; type: functional
# [17] = Oral bioavailability in Beagle dog at 3 mg/kg; type: ADME, organism-based, Canis lupus familiaris; conditions: in vivo
# [18] = Drug uptake in rat brain at 3 mg/kg, po measured after 8 hrs; type: ADME, organism-based; conditions: in vivo
# [19] = Fraction unbound in Wistar Han rat plasma at 2.5 uM by equilibrium dialysis; type: ADME, cell-free
# Protein O-GlcNAcase = biological target: T1, Protein O-GlcNAcase (Homo sapiens, UniProt O60502); experiment: Inhibition of recombinant human OGA
# T1 sequence (O60502 whole entry): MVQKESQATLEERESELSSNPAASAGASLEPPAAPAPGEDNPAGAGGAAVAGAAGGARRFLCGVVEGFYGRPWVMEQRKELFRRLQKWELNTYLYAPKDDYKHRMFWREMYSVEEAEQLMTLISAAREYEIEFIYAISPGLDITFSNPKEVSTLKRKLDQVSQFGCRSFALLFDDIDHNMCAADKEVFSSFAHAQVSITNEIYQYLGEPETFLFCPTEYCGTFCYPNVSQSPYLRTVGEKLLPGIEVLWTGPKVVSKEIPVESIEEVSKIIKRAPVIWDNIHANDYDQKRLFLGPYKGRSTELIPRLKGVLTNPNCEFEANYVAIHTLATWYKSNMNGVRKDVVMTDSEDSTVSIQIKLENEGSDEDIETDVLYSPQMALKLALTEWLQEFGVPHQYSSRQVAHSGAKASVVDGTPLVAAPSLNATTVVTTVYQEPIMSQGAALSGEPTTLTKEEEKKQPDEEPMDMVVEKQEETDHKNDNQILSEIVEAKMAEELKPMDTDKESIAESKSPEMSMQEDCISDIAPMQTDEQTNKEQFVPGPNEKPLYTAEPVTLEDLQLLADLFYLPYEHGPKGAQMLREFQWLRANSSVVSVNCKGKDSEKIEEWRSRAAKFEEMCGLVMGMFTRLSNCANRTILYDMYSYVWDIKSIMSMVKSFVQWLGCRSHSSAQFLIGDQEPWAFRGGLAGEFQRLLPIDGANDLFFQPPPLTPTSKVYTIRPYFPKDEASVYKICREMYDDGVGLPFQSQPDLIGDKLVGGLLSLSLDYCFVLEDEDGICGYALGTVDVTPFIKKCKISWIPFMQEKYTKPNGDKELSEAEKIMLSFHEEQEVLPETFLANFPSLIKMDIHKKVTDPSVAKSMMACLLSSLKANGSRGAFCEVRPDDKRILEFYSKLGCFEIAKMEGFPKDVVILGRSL
# [20] = Volume of distribution at steady state in Beagle dog at 1 mg/kg, iv or 3 mg/kg, po; type: ADME, organism-based, Canis lupus familiaris; conditions: in vivo, read-out: Vdss
# Rattus norvegicus [21] = experiment: Elevation of O-protein in rat brain at 3 mg/kg, po measured after 24 hrs relative to control; type: functional
# Cytochrome P450 1A2 = biological target: T2, Cytochrome P450 1A2 (Homo sapiens, UniProt P05177); experiment: Induction of CYP1A2 in human hepatocytes upto 20 uM; type: ADME, cell-based
# T2 sequence (P05177 whole entry): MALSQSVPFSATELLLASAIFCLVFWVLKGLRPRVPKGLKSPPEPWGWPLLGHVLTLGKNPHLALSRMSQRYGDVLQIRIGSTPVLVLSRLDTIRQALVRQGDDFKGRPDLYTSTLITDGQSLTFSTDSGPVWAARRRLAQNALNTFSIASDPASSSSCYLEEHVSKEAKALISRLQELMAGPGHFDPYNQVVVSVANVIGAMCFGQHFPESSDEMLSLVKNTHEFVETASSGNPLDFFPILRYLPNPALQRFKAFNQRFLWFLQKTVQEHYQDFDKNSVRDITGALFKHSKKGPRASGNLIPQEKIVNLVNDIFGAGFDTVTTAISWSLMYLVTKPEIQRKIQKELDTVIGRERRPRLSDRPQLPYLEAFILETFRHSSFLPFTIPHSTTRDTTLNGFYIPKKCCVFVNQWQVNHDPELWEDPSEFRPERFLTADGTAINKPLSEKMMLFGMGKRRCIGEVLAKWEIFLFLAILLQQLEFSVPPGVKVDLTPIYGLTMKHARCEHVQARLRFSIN
# [22] = Protein binding in dog plasma; type: ADME, cell-free, Canis lupus familiaris; conditions: read-out: PPB
# [23] = Stability in monkey hepatocytes assessed as parent compound remaining at 10 uM incubated for 120 mins; type: ADME, cell-based, Macaca mulatta, Hepatocyte; conditions: rhesus monkey, read-out: Stability
# [24] = Clearance in rhesus monkey at 1 mg/kg, iv; type: ADME, organism-based, Macaca mulatta; conditions: in vivo
# Cytochrome P450 3A4 = Cytochrome P450 3A4 (Homo sapiens, UniProt P08684); experiment: Induction of CYP3A4 in human hepatocytes upto 20 uM; type: ADME, cell-based
# [25] = Cmax in rat assessed as change in histomorphology at 1000 mg/kg, po administered for 7 days and measured on day 8; type: ADME, organism-based; parameters: dose 1000 mg/kg, route oral; conditions: in vivo
# [26] = Clearance in Wistar Han rat at 2 mg/kg, iv; type: ADME, organism-based; conditions: in vivo
# [27] = Cmax in telemetered rat at 380 mg/kg, po; type: ADME, organism-based; parameters: dose 380 mg/kg, route oral; conditions: in vivo
# Cav1.2 = Cav1.2 (Homo sapiens, UniProt Q13936); experiment: Inhibition of Cav1.2 (unknown origin) at 30 uM
# Chain of Cav1.2 (Q13936 whole entry): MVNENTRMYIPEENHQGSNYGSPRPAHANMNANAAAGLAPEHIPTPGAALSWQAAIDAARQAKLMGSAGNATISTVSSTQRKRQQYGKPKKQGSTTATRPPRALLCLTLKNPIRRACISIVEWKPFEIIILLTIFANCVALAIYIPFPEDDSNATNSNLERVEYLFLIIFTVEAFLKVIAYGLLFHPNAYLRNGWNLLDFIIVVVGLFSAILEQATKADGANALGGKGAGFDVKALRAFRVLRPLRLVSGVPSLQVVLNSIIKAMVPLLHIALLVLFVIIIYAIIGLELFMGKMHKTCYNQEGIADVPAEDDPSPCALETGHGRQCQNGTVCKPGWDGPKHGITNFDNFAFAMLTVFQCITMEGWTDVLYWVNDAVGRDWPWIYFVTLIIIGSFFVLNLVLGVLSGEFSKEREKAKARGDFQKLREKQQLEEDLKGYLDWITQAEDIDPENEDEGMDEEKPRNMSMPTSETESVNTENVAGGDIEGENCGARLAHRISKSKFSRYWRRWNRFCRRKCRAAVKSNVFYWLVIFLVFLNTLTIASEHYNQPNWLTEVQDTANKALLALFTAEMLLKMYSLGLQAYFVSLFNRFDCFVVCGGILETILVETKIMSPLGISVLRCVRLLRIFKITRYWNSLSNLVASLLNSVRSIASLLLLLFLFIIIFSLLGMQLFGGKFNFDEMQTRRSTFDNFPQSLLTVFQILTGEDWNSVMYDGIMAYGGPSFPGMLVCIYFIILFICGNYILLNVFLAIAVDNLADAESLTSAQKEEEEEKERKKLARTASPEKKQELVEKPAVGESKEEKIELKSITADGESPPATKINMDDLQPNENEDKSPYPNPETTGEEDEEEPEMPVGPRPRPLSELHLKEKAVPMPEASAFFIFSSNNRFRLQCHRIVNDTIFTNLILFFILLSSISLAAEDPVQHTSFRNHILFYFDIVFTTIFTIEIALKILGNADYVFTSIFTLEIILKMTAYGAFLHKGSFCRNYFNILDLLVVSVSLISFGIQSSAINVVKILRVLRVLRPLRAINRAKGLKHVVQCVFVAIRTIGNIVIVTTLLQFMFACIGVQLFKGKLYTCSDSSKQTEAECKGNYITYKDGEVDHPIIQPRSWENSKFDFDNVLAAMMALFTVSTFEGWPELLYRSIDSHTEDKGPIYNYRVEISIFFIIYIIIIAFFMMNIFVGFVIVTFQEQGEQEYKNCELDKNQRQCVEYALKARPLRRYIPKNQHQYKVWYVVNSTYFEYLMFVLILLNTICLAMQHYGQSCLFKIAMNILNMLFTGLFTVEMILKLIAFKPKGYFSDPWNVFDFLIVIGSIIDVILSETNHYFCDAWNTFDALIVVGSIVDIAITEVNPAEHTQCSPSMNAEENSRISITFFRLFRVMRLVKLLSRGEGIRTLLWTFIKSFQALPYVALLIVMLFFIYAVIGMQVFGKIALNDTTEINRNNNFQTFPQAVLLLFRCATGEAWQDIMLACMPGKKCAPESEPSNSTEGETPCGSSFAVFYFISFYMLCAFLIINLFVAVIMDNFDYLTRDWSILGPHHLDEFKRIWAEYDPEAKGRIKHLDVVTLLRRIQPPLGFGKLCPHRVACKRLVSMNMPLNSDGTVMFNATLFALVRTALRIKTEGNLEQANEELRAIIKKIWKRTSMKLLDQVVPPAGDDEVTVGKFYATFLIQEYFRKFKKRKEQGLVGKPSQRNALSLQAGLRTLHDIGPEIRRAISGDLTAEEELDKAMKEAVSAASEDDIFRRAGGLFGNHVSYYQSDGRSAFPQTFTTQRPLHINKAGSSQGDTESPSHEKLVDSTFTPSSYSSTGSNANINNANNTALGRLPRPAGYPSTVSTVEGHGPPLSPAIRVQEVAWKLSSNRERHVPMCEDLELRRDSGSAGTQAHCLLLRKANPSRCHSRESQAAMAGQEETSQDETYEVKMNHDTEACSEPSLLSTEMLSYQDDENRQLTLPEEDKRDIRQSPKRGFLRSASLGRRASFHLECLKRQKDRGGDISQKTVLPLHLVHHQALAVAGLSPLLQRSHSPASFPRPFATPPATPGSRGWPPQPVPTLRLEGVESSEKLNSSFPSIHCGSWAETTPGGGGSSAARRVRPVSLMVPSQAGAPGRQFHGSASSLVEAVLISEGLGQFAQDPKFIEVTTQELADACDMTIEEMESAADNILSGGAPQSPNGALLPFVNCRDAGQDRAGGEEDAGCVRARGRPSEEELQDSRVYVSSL
# Chain of Nav1.5 (Q14524 whole entry): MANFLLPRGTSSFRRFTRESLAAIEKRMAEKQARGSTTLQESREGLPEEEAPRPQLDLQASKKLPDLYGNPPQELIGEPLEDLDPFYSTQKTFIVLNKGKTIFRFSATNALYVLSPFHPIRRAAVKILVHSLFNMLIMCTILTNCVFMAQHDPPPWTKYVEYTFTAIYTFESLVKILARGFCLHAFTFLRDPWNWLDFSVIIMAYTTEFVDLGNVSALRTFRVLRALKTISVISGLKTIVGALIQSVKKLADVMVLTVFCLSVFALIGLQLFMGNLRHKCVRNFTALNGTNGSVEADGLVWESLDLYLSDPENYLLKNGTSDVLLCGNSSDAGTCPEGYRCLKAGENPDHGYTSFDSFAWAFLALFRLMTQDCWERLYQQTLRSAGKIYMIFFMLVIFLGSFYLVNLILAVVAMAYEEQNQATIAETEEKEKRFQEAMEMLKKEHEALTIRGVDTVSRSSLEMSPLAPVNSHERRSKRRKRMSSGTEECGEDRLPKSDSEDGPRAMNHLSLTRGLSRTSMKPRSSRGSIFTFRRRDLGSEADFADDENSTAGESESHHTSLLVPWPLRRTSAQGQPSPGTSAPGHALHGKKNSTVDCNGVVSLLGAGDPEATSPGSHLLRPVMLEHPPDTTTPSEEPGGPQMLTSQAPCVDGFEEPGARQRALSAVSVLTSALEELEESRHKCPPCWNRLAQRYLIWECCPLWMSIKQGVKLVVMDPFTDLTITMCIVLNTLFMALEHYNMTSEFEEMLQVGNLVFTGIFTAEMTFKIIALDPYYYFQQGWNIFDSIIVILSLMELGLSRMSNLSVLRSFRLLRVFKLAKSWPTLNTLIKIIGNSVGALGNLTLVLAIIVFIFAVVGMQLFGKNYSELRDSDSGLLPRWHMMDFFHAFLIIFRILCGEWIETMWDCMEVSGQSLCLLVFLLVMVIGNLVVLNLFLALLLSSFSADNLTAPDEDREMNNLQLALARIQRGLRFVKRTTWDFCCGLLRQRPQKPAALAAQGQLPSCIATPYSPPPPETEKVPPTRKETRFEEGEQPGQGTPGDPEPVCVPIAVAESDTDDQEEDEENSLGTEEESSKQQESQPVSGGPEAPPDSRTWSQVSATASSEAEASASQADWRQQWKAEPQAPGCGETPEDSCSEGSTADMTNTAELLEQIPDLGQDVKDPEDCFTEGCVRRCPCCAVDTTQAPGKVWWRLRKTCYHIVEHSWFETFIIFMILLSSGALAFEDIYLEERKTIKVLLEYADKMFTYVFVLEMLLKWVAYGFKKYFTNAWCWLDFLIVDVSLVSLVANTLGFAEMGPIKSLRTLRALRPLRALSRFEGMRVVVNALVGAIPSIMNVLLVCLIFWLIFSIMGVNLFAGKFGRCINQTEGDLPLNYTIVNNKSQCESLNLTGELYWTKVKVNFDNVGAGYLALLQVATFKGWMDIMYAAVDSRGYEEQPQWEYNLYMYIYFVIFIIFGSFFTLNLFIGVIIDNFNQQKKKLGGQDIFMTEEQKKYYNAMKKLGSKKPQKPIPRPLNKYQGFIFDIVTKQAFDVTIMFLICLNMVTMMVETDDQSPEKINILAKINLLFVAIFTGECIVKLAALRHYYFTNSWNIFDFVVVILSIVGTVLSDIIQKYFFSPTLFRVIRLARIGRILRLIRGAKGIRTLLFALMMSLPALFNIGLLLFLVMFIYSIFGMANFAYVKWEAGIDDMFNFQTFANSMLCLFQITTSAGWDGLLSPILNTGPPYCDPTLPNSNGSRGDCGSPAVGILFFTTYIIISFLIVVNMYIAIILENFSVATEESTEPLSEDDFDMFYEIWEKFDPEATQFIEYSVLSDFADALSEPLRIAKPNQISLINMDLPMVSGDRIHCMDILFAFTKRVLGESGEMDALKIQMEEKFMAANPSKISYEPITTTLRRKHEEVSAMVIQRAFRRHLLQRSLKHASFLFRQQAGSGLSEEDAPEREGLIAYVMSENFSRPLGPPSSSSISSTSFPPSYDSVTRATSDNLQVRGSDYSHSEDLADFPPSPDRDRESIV
# Chain of Cytochrome P450 3A4 (P08684 whole entry): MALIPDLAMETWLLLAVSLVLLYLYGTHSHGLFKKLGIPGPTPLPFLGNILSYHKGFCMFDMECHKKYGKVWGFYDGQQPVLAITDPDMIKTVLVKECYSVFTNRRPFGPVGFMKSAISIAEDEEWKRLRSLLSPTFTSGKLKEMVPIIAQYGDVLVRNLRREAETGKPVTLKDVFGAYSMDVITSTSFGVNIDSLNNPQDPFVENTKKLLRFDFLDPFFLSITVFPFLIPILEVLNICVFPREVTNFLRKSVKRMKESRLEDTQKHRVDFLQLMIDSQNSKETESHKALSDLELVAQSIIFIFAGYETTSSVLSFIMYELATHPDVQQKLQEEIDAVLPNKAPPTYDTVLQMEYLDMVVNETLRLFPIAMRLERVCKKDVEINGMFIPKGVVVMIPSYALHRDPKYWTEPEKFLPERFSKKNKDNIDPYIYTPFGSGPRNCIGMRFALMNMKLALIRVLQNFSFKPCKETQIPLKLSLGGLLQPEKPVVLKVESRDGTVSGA
smiles,measurement,setting,value
CCNC1=N[C@@H]2[C@@H](O)[C@H](O)[C@@H](C(F)F)O[C@@H]2S1,fold change (FC),Rattus norvegicus [1],2.06
same,AUC/dose,[2],0.61 µM·kg·h/mg
same,inhibition at 30 µM,Nav1.5,< 50%
same,AUC at 24 h,[3],1340 µM·h
same,Activity,[4],Non-Toxic
same,bioavailability,[5],80%
same,"remaining at 2 h, 10 µM",[6],91%
same,Tmax,[7],8 h
same,Activity,[8],Non-Toxic
same,Papp,MDR1,6.4 ×10⁻⁶ cm/s
same,Vd,[9],3.1 L/kg
same,fold change (FC),Rattus norvegicus [10],31.42
same,fraction unbound at 1 µM,[11],> 0.99
same,fraction unbound,[12],> 0.95
same,Drug uptake,[13],0.088 nmol/g
same,Activity,Rattus norvegicus [14],Non-Toxic
same,Cmax,[15],660 µM
same,fold change (FC),Rattus norvegicus [16],2.57
same,bioavailability,[17],90%
same,Drug uptake,[18],0.219 nmol/g
same,fraction unbound at 2.5 µM,[19],0.97
same,Ki,Protein O-GlcNAcase,7.9 nM
same,Vd,[20],2.4 L/kg
same,fold change (FC),Rattus norvegicus [21],2.17
same,Activity,Cytochrome P450 1A2,Not Active
same,fraction unbound,[22],> 0.95
same,"remaining at 2 h, 10 µM",[23],58%
same,clearance,[24],26.7 mL/min/kg
same,Activity,Cytochrome P450 3A4,Not Active
same,Cmax,[25],226 µM
same,clearance,[26],36.7 mL/min/kg
same,Cmax,[27],110 µM
same,inhibition at 30 µM,Cav1.2,< 50%
